For this experiment, the target named is T1, myocardial ATP-sensitive potassium channel (SUR2A/Kir6.2) (UniProt Q61743+Q63563).
T1 construct: expressed in transfected cells
The experiment in a line: Rubidium efflux test on HEK293 cells transfected with SUR2A and Kir6.2 (myocardial action). Type of experiment: cell-based, SUR2A from the rat, Kir6.2 from the mouse. As to conditions: HEK293 cells transfected with SUR2A/Kir6.2; KATP channels opened by rilmakalim; 25 min incubation; read-out: IC50 values for the inhibition of the rubidium efflux. How it is done:
1) Action on the SUR2A/Kir6.2 potassium channel (myocardial action) The action of the compounds on the ion transport through the myocardial ATP-sensitive potassium channel (SUR2A/Kir6.2) was determined in the rubidium efflux test system described below on human embryonic kidney cells HEK293 which were transfected with the components SUR2A and Kir6.2 (cf. Weyermann et al., Naunyn-Schmiedeberg's Arch. Pharmacol. 369, 374-381 (2004)).
The HEK293 cells were cultured at 37° C. in a humidified air atmosphere with 7% carbon dioxide in minimal essential medium with Earle's salts and L-glutamine (MEM, Gibco), which was supplemented with 10% fetal calf serum and zeozin (0.36 mg/ml) and geneticin (0.75 mg/ml). The transfection of the cells and the preparation of a cell line with stable expression of Kir6.2 from the mouse (accession number AF037313) and SUR2A from the rat (accession number D83598/L40624) were carried out as described in Giblin et al., J. Biol. Chem. 274, 22652-22659 (1999).
60 000 transfected cells per well were inoculated into a poly-D-lysine-coated 96-well microtiter plate (Greiner #650 201). After incubation for 24 h at 37° C., the cells were washed three times with buffer 1 (150 mM NaCl, 2 mM CaCl2, 0.8 mM NaH2PO4, 1 mM MgCl2, 5 mM glucose, 25 mM HEPES, pH=7.4). Subsequently, the buffer solution was replaced by 100 μl of rubidium loading buffer (buffer 1 with 5.4 mM RbCl) and the cells were incubated for a further 3 h at 37° C. The rubidium loading buffer was then removed by washing the cells three times with 200 μl each of potassium chloride wash buffer (buffer 1 with 5.4 mM KCl). After addition of the test substances (70 μl; dissolved in potassium chloride wash buffer with addition of DMSO), the KATP channels of the cells were opened by addition of 70 μl of rilmakalim (2 μM) (cf. Krause et al., Pflügers Arch. 429, 625-635 (1995)) and the cells were incubated at 37° C. for 25 min. Subsequently, the cell supernatants were transferred to a new 96-well microtiter plate and the cells were lyzed by addition of 200 μl of lysis buffer (buffer 1 with 1% Triton X-100). The concentrations of Rb^+ in the cell supernatant and in the cell lyzate were measured by means of atomic absorption spectroscopy using an Al 1200 apparatus (Aurora Instruments Ltd.).
The Rb^+ efflux rate was calculated as [Rb^+SN]/[Rb^+total], wherein [Rb^+SN] is the amount of Rb^+ in the cell supernatant and [Rb^+total] is the sum of the amounts of Rb^+ in the cell supernatant and cell lyzate. IC50 values for the inhibition of the rubidium efflux were calculated with the aid of the Hill equation.

T1 sequence (Q63563 whole entry): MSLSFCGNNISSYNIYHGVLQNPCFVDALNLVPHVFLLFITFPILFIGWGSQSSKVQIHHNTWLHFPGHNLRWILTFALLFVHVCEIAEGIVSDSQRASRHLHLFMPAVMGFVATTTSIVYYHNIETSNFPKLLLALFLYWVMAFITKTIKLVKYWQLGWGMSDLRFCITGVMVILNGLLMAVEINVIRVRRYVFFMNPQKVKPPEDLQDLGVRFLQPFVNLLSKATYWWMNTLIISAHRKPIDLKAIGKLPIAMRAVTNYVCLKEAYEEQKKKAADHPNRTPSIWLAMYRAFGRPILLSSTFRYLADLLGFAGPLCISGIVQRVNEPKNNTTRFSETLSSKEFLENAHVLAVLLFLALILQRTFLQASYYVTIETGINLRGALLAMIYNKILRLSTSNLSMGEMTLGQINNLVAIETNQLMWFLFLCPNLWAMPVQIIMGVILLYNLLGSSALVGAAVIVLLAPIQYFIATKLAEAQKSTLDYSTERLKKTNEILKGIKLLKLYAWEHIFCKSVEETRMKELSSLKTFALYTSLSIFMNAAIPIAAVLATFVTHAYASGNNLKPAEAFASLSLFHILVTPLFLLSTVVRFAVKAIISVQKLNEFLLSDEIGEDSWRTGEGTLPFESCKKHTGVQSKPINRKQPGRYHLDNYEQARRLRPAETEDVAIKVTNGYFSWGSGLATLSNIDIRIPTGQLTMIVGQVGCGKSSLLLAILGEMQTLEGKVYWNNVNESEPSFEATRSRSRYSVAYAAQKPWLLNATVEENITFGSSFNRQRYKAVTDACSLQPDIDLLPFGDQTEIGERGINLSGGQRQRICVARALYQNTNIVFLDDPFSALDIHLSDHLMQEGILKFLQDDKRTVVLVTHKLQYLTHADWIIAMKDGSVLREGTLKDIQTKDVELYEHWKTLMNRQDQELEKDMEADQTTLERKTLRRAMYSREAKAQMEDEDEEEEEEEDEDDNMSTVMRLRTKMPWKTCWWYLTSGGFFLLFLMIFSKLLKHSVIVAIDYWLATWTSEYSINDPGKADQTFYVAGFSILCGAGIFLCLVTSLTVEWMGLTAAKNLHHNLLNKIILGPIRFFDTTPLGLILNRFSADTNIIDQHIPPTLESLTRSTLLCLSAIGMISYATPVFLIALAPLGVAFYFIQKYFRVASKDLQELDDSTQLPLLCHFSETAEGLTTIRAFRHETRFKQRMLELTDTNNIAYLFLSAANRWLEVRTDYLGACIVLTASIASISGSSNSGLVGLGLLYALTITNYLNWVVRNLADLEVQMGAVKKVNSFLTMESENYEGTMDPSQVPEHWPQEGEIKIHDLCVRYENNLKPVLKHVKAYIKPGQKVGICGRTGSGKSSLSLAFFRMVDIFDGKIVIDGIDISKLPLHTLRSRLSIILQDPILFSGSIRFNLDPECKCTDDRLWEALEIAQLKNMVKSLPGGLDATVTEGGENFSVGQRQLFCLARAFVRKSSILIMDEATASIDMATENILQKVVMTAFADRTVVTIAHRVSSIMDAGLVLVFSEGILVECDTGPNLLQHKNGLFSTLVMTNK
T1 sequence (Q61743 whole entry): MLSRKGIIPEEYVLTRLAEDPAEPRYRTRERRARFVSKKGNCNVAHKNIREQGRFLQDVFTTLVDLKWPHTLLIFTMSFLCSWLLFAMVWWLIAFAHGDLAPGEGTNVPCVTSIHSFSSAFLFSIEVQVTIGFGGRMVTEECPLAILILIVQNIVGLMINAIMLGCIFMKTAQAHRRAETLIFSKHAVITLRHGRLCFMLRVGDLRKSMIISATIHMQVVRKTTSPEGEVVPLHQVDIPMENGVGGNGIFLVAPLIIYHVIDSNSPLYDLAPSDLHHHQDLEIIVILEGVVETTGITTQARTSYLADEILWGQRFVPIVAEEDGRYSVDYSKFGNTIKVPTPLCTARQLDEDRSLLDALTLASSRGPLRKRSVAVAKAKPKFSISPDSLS

As to `COC1(c2ccc(Cl)cn2)CCC(C(=O)O)(c2ccccc2)CC1` (stereo not drawn) [Example 137], the 50% inhibitory concentration (IC50) (usually the concentration that inhibits the measured activity by half) is below 1 µM. Turning to `Cc1cn(CC2CC2)c([C@]2(OCC3CC3)CC[C@](C(=O)O)(c3ccc(F)cc3)CC2)n1` [Example 368], the IC50 is below 1 µM. For the molecule `Cc1ccc([C@]2(C(=O)O)CC[C@](OCC3CC3)(c3nc4ccccc4n3CC3CC3)CC2)cc1` [Example 412], the IC50 is below 1 µM. Next, `O=C(O)[C@]1(c2ccccc2)CC[C@](OCC2CC2)(c2nc(-c3ccccc3)n(CC3CC3)n2)CC1` [Example 270, Trans-4-Cyclopropylmethoxy-4-(1-cyclopropylmethyl-5-phenyl-1H-[1,2,4]triazol-3-yl)-1-phenylcyclohexanecarboxylic Acid]: below 1 µM. The figure for `CSc1ccc(C2(O)CCC(C(=O)O)(c3ccccc3)CC2)cc1` (stereo not drawn) [Example 161, 4-Hydroxy-4-(4-methylsulfanylphenyl)-1-phenylcyclohexanecarboxylic Acid] is below 1 µM; for `O=C(O)C1(c2ccccc2)CCC(OCC2CC2)(c2ccc(F)cc2)CC1` (stereo not drawn) [Example 150] it is below 1 µM. As to `COC1(c2ccc(F)cc2)CCC(C(=O)O)(c2ccc(C)cc2)CC1` (stereo not drawn) [Example 239], the IC50 is below 1 µM. Take `C=C(CO[C@]1(c2nccn2CC2CC2)CC[C@@](C(=O)O)(c2ccccc2)CC1)c1ccccc1` [Example 495, Cis-4-(1-Cyclopropylmethyl-1H-imidazol-2-yl)-1-phenyl-4-(2-phenylallyloxy)cyclohexanecarboxylic Acid]: the IC50 is below 1 µM. As for `O=C(O)[C@]1(c2ccc(F)cc2)CC[C@@](OCC2CC2)(c2nccn2CC2CC2)CC1` [Example 364], the IC50 was below 1 µM. Take `O=C(O)C1(c2ccccc2)CCC(OCC2CC2)(c2cnc3ccccc3c2)CC1` (stereo not drawn) [Example 152]: the IC50 was below 1 µM. Regarding `CCCn1c(Cl)c(C)nc1[C@]1(OCC2CC2)CC[C@](C(=O)O)(c2ccccc2)CC1` [Example 388], the IC50 is below 1 µM.

For `Cc1c(F)cc([C@]2(OCC3CC3)CC[C@](C(=O)O)(c3ccc(F)cc3)CC2)cc1S(=O)(=O)C(C)(C)C` [Example 304-2, Cis-4-Cyclopropylmethoxy-4-[3-fluoro-4-methyl-5-(2-methylpropane-2-sulfonyl)phenyl]-1-(4-fluorophenyl)cyclohexanecarboxylic Acid], the IC50 is below 1 µM. The figure for `Cc1ccc(C2(O)CCC(C(=O)O)(c3ccccc3)CC2)cc1F` (stereo not drawn) [Example 100] is below 1 µM; for `O=C(O)[C@]1(c2ccccc2)CC[C@@](OCC2CC2)(c2nc3cccnc3n2CC2CC2)CC1` [Example 448] it is below 1 µM.

Take `Cc1c(F)cc(S(C)(=O)=O)cc1[C@]1(OCC2CC2)CC[C@](C(=O)O)(c2ccccc2)CC1` [Example 480, Cis-4-Cyclopropylmethoxy-4-(3-fluoro-2-methyl-5-methanesulfonylphenyl)-1-phenylcyclohexanecarboxylic Acid]: the IC50 was below 1 µM. The figure for `Cc1nc([C@]2(OCCC(C)(C)C)CC[C@](C(=O)O)(c3ccccc3)CC2)n(C)c1Cl` [Example 392] is below 1 µM; for `CC(C)CCO[C@]1(c2nccn2CC2CC2)CC[C@@](C(=O)O)(c2ccc(F)cc2)CC1` [Example 370] it is below 1 µM; for `O=C(O)[C@]1(c2ccccc2)CC[C@](OCC2CC2)(c2ncc(C(F)(F)F)n2CC2CC2)CC1` [Example 379] it is below 1 µM. With `O=C(O)[C@]1(c2ccccc2)CC[C@@](OCC2CC2)(c2ccnc(-c3ccccc3)c2)CC1` [Example 488, Cis-4-Cyclopropylmethoxy-1-phenyl-4-(2-phenylpyridin-4-yl)cyclohexanecarboxylic Acid], the IC50 is below 1 µM. As for `CS(=O)(=O)c1cc(F)cc([C@]2(OCC3CC3)CC[C@](C(=O)O)(c3ccc(F)cc3)CC2)c1` [Example 301, Cis-4-Cyclopropylmethoxy-4-(3-fluoro-5-methanesulfonylphenyl)-1-(4-fluorophenyl)cyclohexanecarboxylic Acid], the half-maximal inhibitory concentration (IC50) is below 1 µM. As to `O=C(O)[C@]1(c2ccccc2)CC[C@](OCC2CC2)(c2nc(-c3ccccc3)cs2)CC1` [Example 333-2, Trans-4-Cyclopropylmethoxy-1-phenyl-4-(4-phenylthiazol-2-yl)cyclohexanecarboxylic Acid], the IC50 was below 1 µM. In the case of `O=C(O)[C@]1(c2ccccc2)CC[C@](OCC2CC2)(c2nc(C3CC3)n(CC3CC3)n2)CC1` [Example 296-2, Trans-4-(5-Cyclopropyl-1-cyclopropylmethyl-1H-[1,2,4]triazol-3-yl)-4-cyclopropylmethoxy-1-phenylcyclohexanecarboxylic Acid], the IC50 is below 1 µM.

For `COC1(c2ccc(F)cc2)CCC(C(=O)O)(c2ccccc2F)CC1` (stereo not drawn) [Example 235], the IC50 was below 1 µM.

`CC(C)(C)c1nc([C@]2(OCC3CC3)CC[C@](C(=O)O)(c3ccccc3)CC2)n(CC2CC2)c1Cl` [Example 393]: the IC50 was below 1 µM.

Consider `CS(=O)(=O)c1cc(F)ccc1C1(OCC2CC2)CCC(C(=O)O)(c2ccc(F)cc2)CC1` (stereo not drawn) [Example 253], for which the IC50 was below 1 µM. As for `Cc1nc([C@]2(OCCC(C)C)CC[C@](C(=O)O)(c3ccccc3)CC2)n(CC2CC2)c1Br` [Example 375], the IC50 is below 1 µM. On to `O=C(O)C1(c2ccccc2)CCC(O)(c2cccc(C(F)(F)F)c2)CC1` (stereo not drawn) [Example 102], for which the IC50 was below 1 µM. In the case of `O=C(O)[C@]1(c2ccccc2)CC[C@@](OCC2CC2)(c2nc(-c3ccccc3)cs2)CC1` [Example 333-1, Cis-4-Cyclopropylmethoxy-1-phenyl-4-(4-phenylthiazol-2-yl)cyclohexanecarboxylic Acid], the IC50 is below 1 µM. The figure for `CCCn1c(Cl)c(C)nc1[C@]1(OCCC(C)(C)C)CC[C@](C(=O)O)(c2ccccc2)CC1` [Example 389] is below 1 µM; for `Cc1nc([C@]2(OCCC(C)C)CC[C@](C(=O)O)(c3ccc(F)cc3)CC2)n(CC2CC2)c1C` [Example 372] it is below 1 µM; for `O=C(O)C1(c2ccccc2)CCC(OCC2CC2)(c2cccc(C3CC3)c2)CC1` (stereo not drawn) [Example 182, 4-Cyclopropylmethoxy-4-(3-cyclopropylphenyl)-1-phenylcyclohexanecarboxylic Acid] it is below 1 µM. For the molecule `Cc1nc([C@]2(OCC3CC3)CC[C@](C(=O)O)(c3ccc(OC(F)(F)F)cc3)CC2)n(CC2CC2)c1Cl` [Example 410], the IC50 was below 1 µM. In the case of `Cc1nc([C@]2(OCC3CC3)CC[C@](C(=O)O)(c3ccc(S(C)(=O)=O)cc3)CC2)n(CC2CC2)c1Cl` [Example 408], the IC50 is below 1 µM. On to `O=C(O)C1(c2ccccc2)CCC(OCCC2CC2)(c2ccc(F)cc2)CC1` (stereo not drawn) [Example 306, 4-(2-Cyclopropylethoxy)-4-(4-fluorophenyl)-1-phenylcyclohexanecarboxylic Acid], for which the concentration for half-maximal inhibition (IC50) was below 1 µM. Next, `O=C(O)[C@]1(c2ccc(F)cc2)CC[C@@](OCC2CC2)(c2ccc(F)cn2)CC1` [Example 263, Cis-4-Cyclopropylmethoxy-1-(4-fluorophenyl)-4-(5-fluoropyridin-2-yl)cyclohexanecarboxylic Acid]: below 1 µM; `CC(C)c1nc([C@]2(OCC3CC3)CC[C@](C(=O)O)(c3ccccc3)CC2)n(CC2CC2)c1Cl` [Example 394]: below 1 µM.

The record behind these values is US8076324B2, “Di(hetero)arylcyclohexane derivatives, their preparation, their use and pharmaceutical compositions comprising them” (Sanofi-Aventis, priority 2007, dated 2011).
